Assay results published in ChEMBL document CHEMBL1201862, “PubChem BioAssay data set” (2004).
The source made the active and inactive calls.

Legend:
[1] = target: Beta-2 adrenergic receptor (Homo sapiens, UniProt P07550); test: beta2AR agonists driving receptor internalization, dose response, cell-based, FAP fluorogen, flow cytometry, cherry pick 1 (AID 588763); assay type: functional
[2] = target: SWI/SNF-related matrix-associated actin-dependent regulator of chromatin subfamily A member 2 (Homo sapiens, UniProt P51531); test: Luminescence-based cell-based high throughput dose response assay to identify activators of the function of SWI/SNF related, matrix associated, actin dependent regulator of chromatin, subfamily a, member 2 (SMARCA2, BRM).; assay type: functional
Sequence of SWI/SNF-related matrix-associated actin-dependent regulator of chromatin subfamily A member 2 (P51531 whole entry): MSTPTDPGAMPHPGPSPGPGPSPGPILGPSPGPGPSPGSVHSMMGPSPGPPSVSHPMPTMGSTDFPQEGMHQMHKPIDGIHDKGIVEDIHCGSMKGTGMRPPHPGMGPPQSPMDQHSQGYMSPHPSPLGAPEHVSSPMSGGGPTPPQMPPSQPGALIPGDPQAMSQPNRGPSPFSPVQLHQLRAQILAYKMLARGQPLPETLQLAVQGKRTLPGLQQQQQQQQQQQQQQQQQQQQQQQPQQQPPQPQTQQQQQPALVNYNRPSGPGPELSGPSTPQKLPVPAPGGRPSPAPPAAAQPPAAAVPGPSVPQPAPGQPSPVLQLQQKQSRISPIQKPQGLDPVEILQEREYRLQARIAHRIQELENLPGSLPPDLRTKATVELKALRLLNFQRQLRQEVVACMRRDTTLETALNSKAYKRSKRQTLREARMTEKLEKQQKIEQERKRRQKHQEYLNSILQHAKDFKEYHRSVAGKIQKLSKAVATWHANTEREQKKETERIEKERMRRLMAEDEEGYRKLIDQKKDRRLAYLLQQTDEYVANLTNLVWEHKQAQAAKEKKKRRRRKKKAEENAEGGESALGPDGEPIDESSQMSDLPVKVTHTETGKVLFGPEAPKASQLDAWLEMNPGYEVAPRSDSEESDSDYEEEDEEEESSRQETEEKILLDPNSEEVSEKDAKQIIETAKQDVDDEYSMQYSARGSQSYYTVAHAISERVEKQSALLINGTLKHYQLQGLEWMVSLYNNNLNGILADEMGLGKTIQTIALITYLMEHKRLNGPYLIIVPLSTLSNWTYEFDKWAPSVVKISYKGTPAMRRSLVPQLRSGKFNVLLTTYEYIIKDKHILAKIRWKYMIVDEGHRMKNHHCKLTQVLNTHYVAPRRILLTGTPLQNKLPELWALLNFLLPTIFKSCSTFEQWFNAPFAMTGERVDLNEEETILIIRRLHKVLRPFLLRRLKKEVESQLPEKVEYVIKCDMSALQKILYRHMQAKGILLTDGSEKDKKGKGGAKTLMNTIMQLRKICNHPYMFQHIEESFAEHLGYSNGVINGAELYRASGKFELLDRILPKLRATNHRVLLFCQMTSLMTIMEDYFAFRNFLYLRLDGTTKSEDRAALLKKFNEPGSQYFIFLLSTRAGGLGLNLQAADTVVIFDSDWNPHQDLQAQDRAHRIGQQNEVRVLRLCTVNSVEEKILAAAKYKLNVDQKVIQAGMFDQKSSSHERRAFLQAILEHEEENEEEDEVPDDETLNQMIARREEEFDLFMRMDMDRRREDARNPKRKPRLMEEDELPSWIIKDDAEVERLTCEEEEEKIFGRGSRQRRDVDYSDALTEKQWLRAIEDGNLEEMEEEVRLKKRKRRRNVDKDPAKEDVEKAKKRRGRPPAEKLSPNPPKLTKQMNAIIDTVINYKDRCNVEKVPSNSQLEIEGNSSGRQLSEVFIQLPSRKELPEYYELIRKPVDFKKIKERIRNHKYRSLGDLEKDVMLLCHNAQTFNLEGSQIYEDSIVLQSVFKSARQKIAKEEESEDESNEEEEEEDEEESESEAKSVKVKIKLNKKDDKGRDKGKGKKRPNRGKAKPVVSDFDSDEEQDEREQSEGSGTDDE

[3] = Counterscreen for activators of the function of SWI/SNF related, matrix associated, actin dependent regulator of chromatin, subfamily a, member 2 (SMARCA2, BRM): Luminescence-based cell-based high throughput dose response assay to identify non-selective compounds using the VP16 reporter assay.; assay type: functional
[4] = target: Photoreceptor-specific nuclear receptor (Homo sapiens, UniProt Q9Y5X4); assay type: functional, cell-based;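 also: CHO-S cells with Gal4-NCOR and VP16-NR2E3 two-hybrid luciferase reporter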
Sequence of Photoreceptor-specific nuclear receptor (Q9Y5X4 whole entry, the tested form may be a part): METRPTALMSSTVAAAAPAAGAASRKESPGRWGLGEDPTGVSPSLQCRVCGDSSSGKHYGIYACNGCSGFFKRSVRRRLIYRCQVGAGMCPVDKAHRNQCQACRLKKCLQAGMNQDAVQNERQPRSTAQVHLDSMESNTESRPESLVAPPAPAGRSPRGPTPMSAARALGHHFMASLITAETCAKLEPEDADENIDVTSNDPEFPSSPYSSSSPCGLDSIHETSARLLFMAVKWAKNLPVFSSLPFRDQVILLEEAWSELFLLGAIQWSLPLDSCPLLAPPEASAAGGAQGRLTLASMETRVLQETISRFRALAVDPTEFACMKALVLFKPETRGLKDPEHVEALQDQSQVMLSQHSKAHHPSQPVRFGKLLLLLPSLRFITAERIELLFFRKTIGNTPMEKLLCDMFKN

[5] = target: Adenosylmethionine-8-amino-7-oxononanoate aminotransferase (Mycobacterium tuberculosis, UniProt P9WQ81); test: Mycobacterium tuberculosis BioA enzyme inhibitor Measured in Biochemical System Using Plate Reader - 2163-02_Inhibitor_Dose_CherryPick_Activity.; assay type: functional, Mycobacterium tuberculosis UT205
Sequence of Adenosylmethionine-8-amino-7-oxononanoate aminotransferase (P9WQ81 whole entry): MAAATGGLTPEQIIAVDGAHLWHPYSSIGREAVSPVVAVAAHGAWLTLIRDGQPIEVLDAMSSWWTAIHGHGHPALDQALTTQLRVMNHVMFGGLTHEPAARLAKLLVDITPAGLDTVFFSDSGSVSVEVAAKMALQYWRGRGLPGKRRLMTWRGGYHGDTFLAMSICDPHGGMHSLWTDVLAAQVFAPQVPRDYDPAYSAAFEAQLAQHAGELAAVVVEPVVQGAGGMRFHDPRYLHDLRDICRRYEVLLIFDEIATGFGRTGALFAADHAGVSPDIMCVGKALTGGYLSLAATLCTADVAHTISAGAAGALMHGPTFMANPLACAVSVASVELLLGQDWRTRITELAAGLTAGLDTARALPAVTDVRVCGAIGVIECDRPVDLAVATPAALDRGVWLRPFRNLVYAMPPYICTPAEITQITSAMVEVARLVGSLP

[6] = target: T1, Apoptotic protease-activating factor 1 (Homo sapiens, UniProt O14727); assay type: functional
T1 sequence (O14727 whole entry): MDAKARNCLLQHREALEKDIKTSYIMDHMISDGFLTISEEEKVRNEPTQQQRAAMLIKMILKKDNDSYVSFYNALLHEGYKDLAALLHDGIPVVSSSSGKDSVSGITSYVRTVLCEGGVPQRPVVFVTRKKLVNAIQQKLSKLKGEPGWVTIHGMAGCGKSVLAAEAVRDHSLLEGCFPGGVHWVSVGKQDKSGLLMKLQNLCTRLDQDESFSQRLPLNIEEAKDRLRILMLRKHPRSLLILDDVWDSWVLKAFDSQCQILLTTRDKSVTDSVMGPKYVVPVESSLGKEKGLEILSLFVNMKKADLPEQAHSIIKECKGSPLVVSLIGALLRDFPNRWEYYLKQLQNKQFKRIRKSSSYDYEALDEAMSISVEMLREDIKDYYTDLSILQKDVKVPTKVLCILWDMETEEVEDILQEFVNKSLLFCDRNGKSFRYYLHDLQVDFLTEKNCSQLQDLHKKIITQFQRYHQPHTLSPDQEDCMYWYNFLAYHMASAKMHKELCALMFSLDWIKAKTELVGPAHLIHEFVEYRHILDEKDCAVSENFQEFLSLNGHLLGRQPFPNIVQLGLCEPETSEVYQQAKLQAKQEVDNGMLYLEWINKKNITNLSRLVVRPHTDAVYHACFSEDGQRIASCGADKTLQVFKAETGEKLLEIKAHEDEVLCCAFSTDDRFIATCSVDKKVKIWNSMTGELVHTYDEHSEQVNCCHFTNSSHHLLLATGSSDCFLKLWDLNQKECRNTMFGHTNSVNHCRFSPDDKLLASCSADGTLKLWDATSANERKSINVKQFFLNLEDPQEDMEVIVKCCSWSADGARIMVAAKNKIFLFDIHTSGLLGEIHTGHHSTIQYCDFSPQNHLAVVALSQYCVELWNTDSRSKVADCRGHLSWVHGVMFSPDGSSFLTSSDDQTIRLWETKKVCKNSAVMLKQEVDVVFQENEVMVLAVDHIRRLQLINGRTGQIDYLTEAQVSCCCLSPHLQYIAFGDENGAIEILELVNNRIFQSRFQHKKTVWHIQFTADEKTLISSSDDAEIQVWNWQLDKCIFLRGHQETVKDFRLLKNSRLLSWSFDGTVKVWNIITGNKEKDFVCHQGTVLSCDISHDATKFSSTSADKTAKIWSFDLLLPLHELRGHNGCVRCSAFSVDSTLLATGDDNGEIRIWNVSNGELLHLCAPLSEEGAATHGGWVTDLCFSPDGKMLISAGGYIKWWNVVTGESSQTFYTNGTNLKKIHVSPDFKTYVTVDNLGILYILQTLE

[7] = target: T2, Nuclear receptor subfamily 0 group B member 1 (Homo sapiens, UniProt P51843); test: Luminescence-based cell-based high throughput dose response assay for inhibitors of the orphan nuclear receptor subfamily 0, group B, member 1 (DAX1; NR0B1). [Related pubchem assays (depositor defined):AID504766, AID504790]; assay type: functional
T2 sequence (P51843 whole entry): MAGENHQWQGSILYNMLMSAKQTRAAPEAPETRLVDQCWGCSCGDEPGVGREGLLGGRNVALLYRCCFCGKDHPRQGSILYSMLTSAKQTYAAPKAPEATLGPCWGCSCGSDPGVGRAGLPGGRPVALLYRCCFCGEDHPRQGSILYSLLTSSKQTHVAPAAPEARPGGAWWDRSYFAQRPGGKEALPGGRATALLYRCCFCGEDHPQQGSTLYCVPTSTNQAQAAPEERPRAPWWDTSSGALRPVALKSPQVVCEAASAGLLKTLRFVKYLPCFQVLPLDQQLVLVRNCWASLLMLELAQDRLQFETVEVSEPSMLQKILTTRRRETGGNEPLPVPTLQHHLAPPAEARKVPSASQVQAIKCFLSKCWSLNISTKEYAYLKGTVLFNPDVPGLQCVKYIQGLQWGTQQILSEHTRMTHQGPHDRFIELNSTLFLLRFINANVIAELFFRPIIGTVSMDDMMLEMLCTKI

[8] = HEp-2 cell cytotoxicity, dose response, cytotoxicity control for RSV inhibitor project, HTS (AID 2410); assay type: functional; settings: human respiratory syncytial virus
HEK293 [9] = test: cells; assay type: functional, cell-based; settings: Homo sapiens
HEK293 [10] = test: optical interference in Abeta FP readout, dose response, artefact control for IDE activator project, biochemical, fluorescence polarization (AID 588442); assay type: functional, cell-based; settings: Homo sapiens
Insulin-degrading enzyme [11] = target: T3, Insulin-degrading enzyme (Homo sapiens, UniProt P14735); test: activators of recombinant IDE enzyme, dose response, counter-screen for IDE activator project, biochemical, fluorescence polarization (AID 588681)
T3 sequence (P14735 whole entry): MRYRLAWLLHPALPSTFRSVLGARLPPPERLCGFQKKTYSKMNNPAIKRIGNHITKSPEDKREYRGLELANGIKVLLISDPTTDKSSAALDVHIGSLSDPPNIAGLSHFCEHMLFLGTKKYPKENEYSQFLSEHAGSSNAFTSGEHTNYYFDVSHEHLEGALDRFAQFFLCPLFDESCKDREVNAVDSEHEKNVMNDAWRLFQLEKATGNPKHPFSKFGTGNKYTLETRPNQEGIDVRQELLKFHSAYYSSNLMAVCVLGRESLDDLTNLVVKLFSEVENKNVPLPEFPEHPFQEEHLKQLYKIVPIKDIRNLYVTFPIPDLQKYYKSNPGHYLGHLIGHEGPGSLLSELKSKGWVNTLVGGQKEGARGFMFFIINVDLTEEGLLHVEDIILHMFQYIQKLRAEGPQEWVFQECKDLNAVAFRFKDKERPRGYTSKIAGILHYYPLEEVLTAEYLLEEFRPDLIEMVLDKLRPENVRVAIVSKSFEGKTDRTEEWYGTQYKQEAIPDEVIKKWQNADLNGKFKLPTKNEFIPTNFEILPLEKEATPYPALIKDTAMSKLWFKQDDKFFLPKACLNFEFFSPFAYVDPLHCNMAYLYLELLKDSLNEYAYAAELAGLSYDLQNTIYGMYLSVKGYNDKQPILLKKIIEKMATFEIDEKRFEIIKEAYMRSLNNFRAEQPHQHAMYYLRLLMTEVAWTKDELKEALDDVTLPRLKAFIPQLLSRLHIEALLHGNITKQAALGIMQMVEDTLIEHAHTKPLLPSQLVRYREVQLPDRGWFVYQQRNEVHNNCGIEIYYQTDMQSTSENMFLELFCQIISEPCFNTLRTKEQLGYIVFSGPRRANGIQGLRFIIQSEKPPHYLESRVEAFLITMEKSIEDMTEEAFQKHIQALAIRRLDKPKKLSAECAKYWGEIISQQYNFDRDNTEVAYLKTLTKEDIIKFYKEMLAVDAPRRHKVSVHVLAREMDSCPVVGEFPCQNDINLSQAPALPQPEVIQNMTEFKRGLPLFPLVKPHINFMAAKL

Insulin-degrading enzyme [12] = target: T3, Insulin-degrading enzyme; test: activators of endogenous IDE in HEK cells, dose response, cell-based, fluorescence polarization (AID 588439); assay type: functional
HEK293 [13] = test: HEK cell cytotoxicity by LDH release, dose response, cytotoxicity control for IDE activator project, fluorescence, HEK cells (AID 588440); assay type: functional, cell-based; settings: Homo sapiens;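 also: cytotoxicity by LDH release measuring loss of membrane integrity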
[14] = target: Tyrosine-protein phosphatase non-receptor type 11 (Homo sapiens, UniProt Q06124); test: SHP2 phosphatase inhibition, dose response, selectivity assay for STEP inhibitor project, biochemical (AID 602367); assay type: functional; settings: read-out: IC50_Mean
Sequence of Tyrosine-protein phosphatase non-receptor type 11 (Q06124 whole entry): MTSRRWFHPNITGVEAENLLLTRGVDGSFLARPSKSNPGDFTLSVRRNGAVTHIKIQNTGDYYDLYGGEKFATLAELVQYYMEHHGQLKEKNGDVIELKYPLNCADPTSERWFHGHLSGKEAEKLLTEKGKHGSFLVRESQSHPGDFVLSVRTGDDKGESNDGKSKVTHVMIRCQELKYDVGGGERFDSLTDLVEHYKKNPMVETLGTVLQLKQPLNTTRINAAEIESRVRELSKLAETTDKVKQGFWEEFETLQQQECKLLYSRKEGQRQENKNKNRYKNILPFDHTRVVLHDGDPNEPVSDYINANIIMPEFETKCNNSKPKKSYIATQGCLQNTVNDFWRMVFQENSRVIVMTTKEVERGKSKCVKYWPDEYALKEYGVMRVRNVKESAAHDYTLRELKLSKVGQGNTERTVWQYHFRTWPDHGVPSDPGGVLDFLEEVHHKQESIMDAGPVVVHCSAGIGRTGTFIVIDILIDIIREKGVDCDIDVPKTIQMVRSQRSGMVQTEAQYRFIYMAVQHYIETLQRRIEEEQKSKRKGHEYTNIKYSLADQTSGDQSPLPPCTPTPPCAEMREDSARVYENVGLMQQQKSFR

[15] = target: Tyrosine-protein phosphatase non-receptor type 5 (Homo sapiens, UniProt P54829); test: STEP phosphatase inhibitors, confirmation, biochemical, fluorescence intensity, uHTS hits (AID 602372); assay type: functional; settings: read-out: IC50_Mean
Sequence of Tyrosine-protein phosphatase non-receptor type 5 (P54829 whole entry, the tested form may be a part): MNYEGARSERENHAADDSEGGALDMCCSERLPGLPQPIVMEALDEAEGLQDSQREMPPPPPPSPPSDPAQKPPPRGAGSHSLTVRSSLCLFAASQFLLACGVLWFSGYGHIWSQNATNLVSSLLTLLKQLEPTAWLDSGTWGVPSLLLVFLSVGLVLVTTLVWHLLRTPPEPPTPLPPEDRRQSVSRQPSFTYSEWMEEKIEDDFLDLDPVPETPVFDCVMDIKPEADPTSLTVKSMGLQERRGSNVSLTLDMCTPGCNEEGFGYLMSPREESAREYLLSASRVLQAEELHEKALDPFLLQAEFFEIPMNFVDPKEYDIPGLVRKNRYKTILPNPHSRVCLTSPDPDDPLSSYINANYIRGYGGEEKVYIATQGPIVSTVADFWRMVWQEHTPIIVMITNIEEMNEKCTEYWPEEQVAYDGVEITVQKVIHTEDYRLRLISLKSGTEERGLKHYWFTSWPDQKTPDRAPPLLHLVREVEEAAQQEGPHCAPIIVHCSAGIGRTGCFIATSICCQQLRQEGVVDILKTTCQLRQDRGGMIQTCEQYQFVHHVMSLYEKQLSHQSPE

[16] = target: T4, Carboxy-terminal domain RNA polymerase II polypeptide A small phosphatase 1 (Homo sapiens, UniProt Q9GZU7); test: inhibitors of CTDSP1, concentration-response testing, biochemical assay, absorbance-based, actives from ultra-high-throughput screening (AID 540297); assay type: functional
T4 sequence (Q9GZU7 whole entry): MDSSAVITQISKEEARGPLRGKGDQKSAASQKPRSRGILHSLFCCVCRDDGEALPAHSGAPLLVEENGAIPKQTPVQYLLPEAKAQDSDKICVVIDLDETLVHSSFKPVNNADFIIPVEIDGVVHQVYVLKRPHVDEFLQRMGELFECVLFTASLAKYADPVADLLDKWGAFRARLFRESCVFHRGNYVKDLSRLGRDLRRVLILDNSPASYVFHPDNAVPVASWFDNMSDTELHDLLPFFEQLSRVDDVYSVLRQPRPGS

[17] = target: Dual specificity protein phosphatase 3 (Homo sapiens, UniProt P51452); test: VHR phosphatase inhibition, dose response, selectivity assay for STEP inhibitor project, biochemical (AID 602374); assay type: functional; settings: read-out: IC50_Mean
Sequence of Dual specificity protein phosphatase 3 (P51452 whole entry): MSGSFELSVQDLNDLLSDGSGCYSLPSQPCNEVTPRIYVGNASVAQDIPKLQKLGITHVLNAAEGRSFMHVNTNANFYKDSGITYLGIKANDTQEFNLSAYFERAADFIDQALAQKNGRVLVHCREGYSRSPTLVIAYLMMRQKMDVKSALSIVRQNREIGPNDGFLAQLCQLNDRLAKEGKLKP

Caspase-6 = target: T5, Caspase-6 (Homo sapiens, UniProt P55212); test: human caspase-6 inhibitors, dose response, biochemical, VEID-R110 fluorescence, cherry-pick (AID 720632)
T5 sequence (P55212 whole entry): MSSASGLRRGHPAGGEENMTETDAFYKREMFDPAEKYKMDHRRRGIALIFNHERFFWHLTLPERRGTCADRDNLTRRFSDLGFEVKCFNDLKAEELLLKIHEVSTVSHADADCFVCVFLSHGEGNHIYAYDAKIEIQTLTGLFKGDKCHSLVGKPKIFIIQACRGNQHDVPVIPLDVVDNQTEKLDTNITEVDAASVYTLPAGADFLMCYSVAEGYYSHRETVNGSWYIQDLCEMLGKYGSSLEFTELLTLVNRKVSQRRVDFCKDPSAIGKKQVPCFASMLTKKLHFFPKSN

Sequence of Beta-2 adrenergic receptor (P07550 whole entry): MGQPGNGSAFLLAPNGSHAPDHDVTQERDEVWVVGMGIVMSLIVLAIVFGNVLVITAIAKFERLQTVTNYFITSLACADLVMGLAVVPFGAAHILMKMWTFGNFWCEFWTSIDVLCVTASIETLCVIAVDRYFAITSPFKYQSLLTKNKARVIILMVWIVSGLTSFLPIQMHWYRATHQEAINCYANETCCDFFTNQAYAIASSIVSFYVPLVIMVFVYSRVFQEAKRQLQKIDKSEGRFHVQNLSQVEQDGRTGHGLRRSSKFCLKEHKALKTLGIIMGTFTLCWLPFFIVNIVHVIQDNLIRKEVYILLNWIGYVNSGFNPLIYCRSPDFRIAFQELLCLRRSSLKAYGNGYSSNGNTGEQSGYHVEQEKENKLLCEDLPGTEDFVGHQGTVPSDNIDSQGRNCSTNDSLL

Cc1c(C(=O)N2CCc3ccccc3C2)oc2ccc(S(=O)(=O)N3CCCCCC3)cc12
EC50 [1]: 1.46 µM (active)

Cc1cccc(C(=O)N[C@H](C(=O)Nc2ncc(C)s2)C(C)C)c1
EC50 [2]: > 91.1 µM (inactive)
EC50 [3]: > 91.1 µM (inactive)
IC50 [4]: 0.0592 µM (active)

CN1c2ccc(-c3cccc(F)c3)cc2[C@H]2[C@H](CCN2C(=O)c2ccncc2)[C@@H]1CO
AC50 [5]: 7.24 µM (active)

CC(=O)c1ccc2c(c1)c(C#N)c1ccccc1[n+]2[O-]
IC50 [6]: 88.8 µM (active)

N#C/C(=C/c1ccc(-c2cc([N+](=O)[O-])ccc2Cl)o1)C(N)=O
IC50 [7]: > 67.6 µM (inactive)
CC50 [8]: 16.6 µM (active)
IC50 (HEK293 [9]): > 67.6 µM (inactive)

Cn1c(CN2CCOCC2)nnc1SCC(=O)Nc1ccc([N+](=O)[O-])cc1O
EC50 (HEK293 [10]): > 54.7 µM (inactive)
EC50 (Insulin-degrading enzyme [11]): > 54.7 µM (inactive)
EC50 (Insulin-degrading enzyme [12]): > 54.7 µM (inactive)
IC50 (HEK293 [13]): > 89.2 µM (inactive)

O=S(=O)(Nc1ccccc1)c1cccc2nsnc12
IC50 [14]: 3.9 µM (active)
IC50 [15]: 35.1 µM (inactive)
IC50 [16]: 6.86 µM (active)
IC50 [17]: 2.91 µM (active)
AC50 (Caspase-6): 8.86 µM (active)

Cc1ccc(S(=O)(=O)OCCC2=CC(=O)CCN2Cc2ccccc2)cc1
EC50 (HEK293 [10]): > 55.9 µM (inactive)
EC50 (Insulin-degrading enzyme [11]): > 54.7 µM (inactive)
EC50 (Insulin-degrading enzyme [12]): > 54.7 µM (inactive)
IC50 (HEK293 [13]): > 89.1 µM (inactive)
